This note sets out measurements from patent US9796704B2, “Substituted quinazolines as receptor-type kinase inhibitors” (Symphony Evolution, Inc., priority 2002, dated 2017).

Bounds are passed on as bounds.

The target of assay [1] is EphB4 (Homo sapiens (Human), UniProt P54760). Nature of the assay: EphB4 kinase inhibition, 33P phosphoryl transfer assay (radiometric). It is filed as biochemical. Here is the method:
Phosphorylated substrate products are quantified by scintillation spectrometry.
Kinase activity and compound inhibition are investigated using one or more of the three assay formats described below. The ATP concentrations are selected near its Michaelis-Menten constant (KM) for each individual kinase. Dose-response experiments are performed at ten different inhibitor concentrations in a 384-well plate format. […] These parameters are obtained by nonlinear regression algorithm built into ActivityBase software (available from ID Business Solutions Ltd., of Guildford, Surrey, UK). ^33P Phosphoryl Transfer Assay (Radiometric)
Greiner 384-well white clear bottom high binding plates (available from Greiner Bio-One, Inc., of Longwood, Fla.) are coated with 2 μg/well of protein or peptide substrate in a 50 μL volume overnight at ambient temperature. […] The coating solution is aspirated and the plates are washed once with 50 μL of assay buffer and padded dry. Subsequently compounds and enzymes are mixed with γ ^33P-ATP (3.3 μCi/nmol) in a total volume of 20 uL in suitable assay buffers (see Table 2). For example the final EphB4 reaction solution contains 20 mM TrisHCl, pH 7.5, 10 mM MgCl2, 0.01% Triton X-100, 0.1 mM NaVO3, 5 nM EphB4 enzyme and 5 μM ATP. […] The plates are subsequently washed 6-12 times with PBST or TBS buffer.

Assay [2] has as its target EGFR (Homo sapiens (Human), UniProt P00533). Nature of the assay: EGFR kinase inhibition, luciferase-coupled chemiluminescent assay (LCCA). As to conditions: read-out: EGFR IC50.
Experimental: Kinase activity and compound inhibition are investigated using one or more of the three assay formats described below. The ATP concentrations are selected near its Michaelis-Menten constant (KM) for each individual kinase. Dose-response experiments are performed at ten different inhibitor concentrations in a 384-well plate format. […] Typically H is close to unity.
In the LCCA assays, kinase activity is measured by the ATP consumption that is accurately measured by luciferase-coupled chemiluminescence. Greiner 384-well white clear bottom medium binding plates are used for LCCA. Briefly the kinase reaction is initiated by mixing compounds, ATP and kinases in a 20 μL volume. At the end of the kinase reaction, a 20 μL luciferase-luciferin mix is added and the chemiluminescent signal is read on a Wallac Victor^2 reader.
In assay [3] the target is EphA2 (Homo sapiens (Human), UniProt P29317). Nature of the assay: EphA2 kinase inhibition, luciferase-coupled chemiluminescent assay (LCCA). To be noted: read-out: EphA2 IC50.
EphA2, sequence (P29317 598-890): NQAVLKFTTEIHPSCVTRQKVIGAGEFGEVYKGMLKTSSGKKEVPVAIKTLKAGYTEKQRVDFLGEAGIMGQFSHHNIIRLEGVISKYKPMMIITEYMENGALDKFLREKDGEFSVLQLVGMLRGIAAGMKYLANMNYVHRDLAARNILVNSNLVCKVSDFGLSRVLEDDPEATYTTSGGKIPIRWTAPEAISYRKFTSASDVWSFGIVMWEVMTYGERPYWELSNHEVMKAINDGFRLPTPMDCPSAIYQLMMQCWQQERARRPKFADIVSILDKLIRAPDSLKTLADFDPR

EphB4, sequence (P54760 605-890): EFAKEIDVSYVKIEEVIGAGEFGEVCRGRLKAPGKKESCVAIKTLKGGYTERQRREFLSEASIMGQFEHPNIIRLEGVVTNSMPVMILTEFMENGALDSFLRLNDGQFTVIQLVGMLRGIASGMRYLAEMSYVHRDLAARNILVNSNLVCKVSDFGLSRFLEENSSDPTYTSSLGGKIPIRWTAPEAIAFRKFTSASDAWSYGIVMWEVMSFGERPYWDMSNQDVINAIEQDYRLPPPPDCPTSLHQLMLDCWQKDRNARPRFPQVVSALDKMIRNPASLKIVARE
EGFR, sequence (P00533 672-1210): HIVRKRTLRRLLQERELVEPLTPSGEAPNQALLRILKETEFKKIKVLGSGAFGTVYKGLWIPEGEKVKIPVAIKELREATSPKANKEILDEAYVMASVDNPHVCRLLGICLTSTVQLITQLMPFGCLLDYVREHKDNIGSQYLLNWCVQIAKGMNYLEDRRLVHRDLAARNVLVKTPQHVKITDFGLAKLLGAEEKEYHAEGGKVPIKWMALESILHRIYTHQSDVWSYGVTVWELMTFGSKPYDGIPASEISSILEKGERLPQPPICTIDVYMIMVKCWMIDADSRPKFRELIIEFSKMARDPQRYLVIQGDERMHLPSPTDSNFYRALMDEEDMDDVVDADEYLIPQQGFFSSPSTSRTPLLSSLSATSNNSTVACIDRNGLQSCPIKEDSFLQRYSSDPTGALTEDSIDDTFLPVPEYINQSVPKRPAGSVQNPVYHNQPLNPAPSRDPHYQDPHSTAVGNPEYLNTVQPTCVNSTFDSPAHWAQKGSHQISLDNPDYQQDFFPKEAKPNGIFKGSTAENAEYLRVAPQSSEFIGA

For `COc1cc2c(Nc3ccc(Cl)c(Cl)c3)ncnc2cc1OC[C@H]1O[C@H](OC)[C@H](O)[C@@H](O)[C@@H]1O` (stereo in doubt) [Example 194, methyl 6-O-[4-[(3,4-dichlorophenyl)amino]-6-(methyloxy)quinazolin-7-yl]-alpha-D-glucopyranoside], the figures for the IC50 in assay [1], in assay [2] and in assay [3] were below 50 nM, below 50 nM and 50 to 1000 nM, respectively.

On to `COc1cc2c(Nc3cc(Cl)c(Cl)cc3F)ncnc2cc1OC[C@@H]1CO[C@H]2[C@@H]1OC[C@@H]2OC` [Example 48, 1,4:3,6-dianhydro-5-deoxy-5-({[4-[(4,5-dichloro-2-fluorophenyl)amino]-6-(methyloxy)quinazolin-7-yl]oxy}methyl)-2-O-methyl-D-glucitol], for which the IC50 in assay [1] is 1000 to 20000 nM; in assay [2] it was below 50 nM; in assay [3] it was 1000 to 20000 nM.

For `COc1cc2c(Nc3cccc(Cl)c3F)ncnc2cc1O[C@H]1CO[C@H]2[C@@H]1OC[C@@H]2OC` [Example 71, 1,4:3,6-dianhydro-2-O-[4-[(3-chloro-2-fluorophenyl)amino]-6-(methyloxy)quinazolin-7-yl]-5-O-methyl-L-iditol], the IC50 is 50 to 1000 nM in assay [1], below 50 nM in assay [2] and 50 to 1000 nM in assay [3].

`COc1cc2c(Nc3ccc(Cl)c(Cl)c3)ncnc2cc1O[C@H]1CO[C@H]2[C@@H]1OC[C@@H]2OC` [Example 72, 1,4:3,6-dianhydro-2-O-[4-[(3,4-dichlorophenyl)amino]-6-(methyloxy)quinazolin-7-yl]-5-O-methyl-L-iditol]: the values for the IC50 in assay [1], in assay [2] and in assay [3] were 50 to 1000 nM, below 50 nM and 50 to 1000 nM, respectively.

With `CCO[C@H]1CO[C@H]2[C@@H]1OC[C@@H]2Oc1cc2ncnc(Nc3ccc(Br)c(Cl)c3)c2cc1OC` [Example 74, 1,4:3,6-dianhydro-2-O-[4-[(4-bromo-3-chlorophenyl)amino]-6-(methyloxy)quinazolin-7-yl]-5-O-ethyl-L-iditol], the IC50 in assay [1] is 50 to 1000 nM; in assay [2] it was below 50 nM; in assay [3] it was 1000 to 20000 nM.

As to `COc1cc2c(Nc3cccc(Br)c3C)ncnc2cc1O[C@H]1CO[C@H]2[C@@H]1OC[C@@H]2OC` [Example 75, 1,4:3,6-dianhydro-2-O-[4-[(3-bromo-2-methylphenyl)amino]-6-(methyloxy)quinazolin-7-yl]-5-O-methyl-L-iditol], the results for the IC50 in assay [1], in assay [2] and in assay [3] were below 50 nM, below 50 nM and 50 to 1000 nM, respectively.

As for `COc1cc2c(Nc3cccc(Cl)c3C)ncnc2cc1O[C@H]1CO[C@H]2[C@@H]1OC[C@@H]2OC` [Example 76, 1,4:3,6-dianhydro-2-O-[4-[(3-chloro-2-methylphenyl)amino]-6-(methyloxy)quinazolin-7-yl]-5-O-methyl-L-iditol], the IC50 is 50 to 1000 nM in assay [1], below 50 nM in assay [2] and 50 to 1000 nM in assay [3].

On to `COc1cc2c(Nc3cc(Cl)ccc3Cl)ncnc2cc1O[C@@H]1CO[C@@H]2[C@H]1OC[C@H]2F` [Example 118, 1,4:3,6-dianhydro-2-deoxy-5-O-[4-[(2,5-dichlorophenyl)amino]-6-(methyloxy)quinazolin-7-yl]-2-fluoro-D-iditol], for which the IC50 in assay [1], in assay [2] and in assay [3] was below 50 nM in each case.

For `COc1cc2c(Nc3ccc(Cl)c(Cl)c3)ncnc2cc1OCc1noc(C2CCNCC2)n1` [Example 141, N-(3,4-dichlorophenyl)-6-(methyloxy)-7-{[(5-piperidin-4-yl-1,2,4-oxadiazol-3-yl)methyl]oxy}quinazolin-4-amine], the results for the half-inhibitory concentration (IC50) in assay [1] and in assay [2] were 50 to 1000 nM and below 50 nM, respectively.

Take `COc1cc2c(Nc3ccc(Cl)c(Cl)c3)ncnc2cc1OCc1noc(C2CCN(C)CC2)n1` [Example 142, N-(3,4-dichlorophenyl)-6-(methyloxy)-7-({[5-(1-methylpiperidin-4-yl)-1,2,4-oxadiazol-3-yl]methyl}oxy)quinazolin-4-amine]: the IC50 in assay [1] was 50 to 1000 nM; in assay [2], below 50 nM.

Take `COc1cc2c(Nc3ccc(Cl)c(Cl)c3)ncnc2cc1OCc1nc(CN2CCOCC2)no1` [Example 143, N-(3,4-dichlorophenyl)-6-(methyloxy)-7-({[3-(morpholin-4-ylmethyl)-1,2,4-oxadiazol-5-yl]methyl}oxy)quinazolin-4-amine]: the IC50 in assay [1] is 50 to 1000 nM; in assay [2], below 50 nM.

Take `COc1cc2c(Nc3ccc(Cl)c(Cl)c3)ncnc2cc1OCc1noc(C2CCCCN2)n1` (centres unmarked) [Example 145, N-(3,4-dichlorophenyl)-6-(methyloxy)-7-{[(5-piperidin-2-yl-1,2,4-oxadiazol-3-yl)methyl]oxy}quinazolin-4-amine]: the IC50 is 50 to 1000 nM in assay [1] and below 50 nM in assay [2].

As for `COc1cc2c(Nc3ccc(Cl)c(Cl)c3)ncnc2cc1OCC1CN(Cc2ccccc2)CCO1` (centres unmarked) [Example 147, N-(3,4-dichlorophenyl)-6-(methyloxy)-7-({[4-(phenylmethyl)morpholin-2-yl]methyl}oxy)quinazolin-4-amine], the results for the 50% inhibitory concentration (IC50) in assay [1] and in assay [2] were 50 to 1000 nM and below 50 nM, respectively.

`COc1cc2c(Nc3ccc(Cl)c(Cl)c3)ncnc2cc1OCC1CN(C)CCO1` (centres unmarked) [Example 151, N-(3,4-dichlorophenyl)-7-{[(4-methylmorpholin-2-yl)methyl]oxy}-6-(methyloxy)quinazolin-4-amine]: the IC50 is 50 to 1000 nM in assay [1], below 50 nM in assay [2] and 50 to 1000 nM in assay [3].

In the case of `COc1cc2c(Nc3ccc(Cl)c(Cl)c3)ncnc2cc1OCc1noc(C2CCCNC2)n1` (centres unmarked) [Example 153, N-(3,4-dichlorophenyl)-6-(methyloxy)-7-{[(5-piperidin-3-yl-1,2,4-oxadiazol-3-yl)methyl]oxy}quinazolin-4-amine], the results for the IC50 in assay [1] and in assay [2] were 50 to 1000 nM and below 50 nM, respectively.

Regarding `COc1cc2c(Nc3ccc(Cl)c(Cl)c3)ncnc2cc1OCc1noc(C2CCCN(C)C2)n1` (centres unmarked) [Example 156, N-(3,4-dichlorophenyl)-6-(methyloxy)-7-({[5-(1-methylpiperidin-3-yl)-1,2,4-oxadiazol-3-yl]methyl}oxy)quinazolin-4-amine], the IC50 in assay [1] is 50 to 1000 nM; in assay [2], below 50 nM.

On to `COc1cc2c(Nc3ccc(Cl)c(Cl)c3)ncnc2cc1OCc1ccncc1` [Example 172, N-(3,4-dichlorophenyl)-6-(methyloxy)-7-[(pyridin-4-ylmethyl)oxy]quinazolin-4-amine], for which the IC50 in assay [1] and in assay [2] was below 50 nM throughout.

`COc1cc2c(Nc3ccc(Cl)c(Cl)c3)ncnc2cc1OCc1cccnc1` [Example 179, N-(3,4-dichlorophenyl)-6-(methyloxy)-7-[(pyridin-3-ylmethyl)oxy]quinazolin-4-amine]: the IC50 is below 50 nM in assay [2] and 1000 to 20000 nM in assay [3].

On to `COc1cc2c(Nc3ccc(Cl)c(Cl)c3)ncnc2cc1OCC1CC1` [Example 182, 7-[(cyclopropylmethyl)oxy]-N-(3,4-dichlorophenyl)-6-(methyloxy)quinazolin-4-amine], for which the figures for the half-inhibitory concentration (IC50) in assay [1], in assay [2] and in assay [3] were 50 to 1000 nM, below 50 nM and 50 to 1000 nM, respectively.

`COc1cc2c(Nc3ccc(Cl)c(Cl)c3)ncnc2cc1OCc1nc(N2CCNCC2)no1` [Example 217, N-(3,4-dichlorophenyl)-6-(methyloxy)-7-{[(3-piperazin-1-yl-1,2,4-oxadiazol-5-yl)methyl]oxy}quinazolin-4-amine]: the IC50 in assay [3] is below 50 nM.

Take `COc1cc2c(Nc3ccc(Cl)c(Cl)c3)ncnc2cc1OCc1csc(-c2ccc(C(F)(F)F)cc2)n1` [Example 222, N-(3,4-dichlorophenyl)-6-(methyloxy)-7-[({2-[4-(trifluoromethyl)phenyl]-1,3-thiazol-4-yl}methyl)oxy]quinazolin-4-amine]: the IC50 in assay [1] is 50 to 1000 nM; in assay [2], below 50 nM.

Turning to `COc1cc2c(Nc3ccc(Cl)c(Cl)c3)ncnc2cc1OCc1c(F)cccc1F` [Example 233, N-(3,4-dichlorophenyl)-7-{[(2,6-difluorophenyl)methyl]oxy}-6-(methyloxy)quinazolin-4-amine], the IC50 in assay [1] and in assay [2] was below 50 nM throughout.

`CCCN1CCCOC(COc2cc3ncnc(Nc4ccc(Cl)c(Cl)c4)c3cc2OC)C1` (centres unmarked) [Example 258, N-(3,4-dichlorophenyl)-6-(methyloxy)-7-{[(4-propyl-1,4-oxazepan-2-yl)methyl]oxy}quinazolin-4-amine]: the half-maximal inhibitory concentration (IC50) in assay [1] was 50 to 1000 nM; in assay [2], below 50 nM.

Take `COc1cc2c(Nc3ccc(Cl)c(Cl)c3)ncnc2cc1OCC1CN(CC2CC2)CCCO1` (centres unmarked) [Example 259, 7-({[4-(cyclopropylmethyl)-1,4-oxazepan-2-yl]methyl}oxy)-N-(3,4-dichlorophenyl)-6-(methyloxy)quinazolin-4-amine]: the values for the concentration for half-maximal inhibition (IC50) in assay [1] and in assay [2] were 50 to 1000 nM and below 50 nM, respectively.

On to `COc1cc2c(Nc3ccc(Cl)c(Cl)c3)ncnc2cc1OCC1CN(C2CCCC2)CCO1` (centres unmarked) [Example 269, 7-{[(4-cyclopentylmorpholin-2-yl)methyl]oxy}-N-(3,4-dichlorophenyl)-6-(methyloxy)quinazolin-4-amine], for which the IC50 in assay [1] was 50 to 1000 nM; in assay [2], below 50 nM.
